EPSA and IC50 data for ten compounds are collected here from patent publication US20260022143A1, “Cyclic Peptide Inhibitors of IL-23” (JANSSEN PHARMACEUTICA NV, priority 2022, published 2026).

pIC50: −log10 of the molar value. Like-named read-outs stand apart in the source and are kept apart here. Starred links: 1 amine or outer side, 2 acyl side, 3 side chain; linkers in the order of their positions; H or OH if unused. Positions of bridges follow the written chain, without caps; N, C: chain ends. Non-standard residues stand in square brackets, D forms with d. Residues, ends and D or L forms follow the SMILES beside them. *: point of attachment. Trp(7-(3-AcNH-Ph)) = CC(=O)Nc1cccc(-c2cccc3c(C[C@H](N)C(=O)O)c[nH]c23)c1; X43 = C[N+](C)(C)CCCCCc1cn(-c2ccc(C[C@H](N[*:1])C(=O)[*:2])cc2)nn1; Me3N+(CH2)2O(CH2)2O(CH2)2CO = C[N+](C)(C)CCOCCOCCC(=O)*; X59 = C[N+](C)(C)CCN(CC*)S(=O)(=O)c1ccccc1[N+](=O)[O-]; CH2CH2OCH2CH2OCH2CH2NMe3+ = C[N+](C)(C)CCOCCOCC*; Trp(7-Me) = Cc1cccc2c(C[C@H](N)C(=O)O)c[nH]c12; Abu(4-yl) = O=C([C@H](CC[*:3])N[*:1])[*:2]; X20 = C[N+](C)(C)CC[C@H](N[*:1])C(=O)[*:2]; 2Nal = N[C@@H](Cc1ccc2ccccc2c1)C(=O)O; AEF = NCCOc1ccc(C[C@H](N)C(=O)O)cc1; dNMeY = CN[C@H](Cc1ccc(O)cc1)C(=O)O; 3Pal = N[C@@H](Cc1cccnc1)C(=O)O; Lys(Me) = CNCCCC[C@H](N)C(=O)O; Pen = CC(C)(S)[C@H](N)C(=O)O; αMeC = C[C@](N)(CS)C(=O)O; Thp = NC1(C(=O)O)CCOCC1; X3 = C[N+](C)(C)CCCCC*; X12 = C[N+](C)(C)CCC*; Sar = CNCC(=O)O Where only a bound is given, the exact number is not on record here.

Series [1] in a line: Exposed Polar Surface Area (EPSA). The class given is physicochemical. Particulars: SFC on Chirex 3014 column, sample 1 mM DMSO stock. Summed up: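 Polarity measured by SFC on a Chirex 3014 column (35 °C, 4 mL/min) with methanol/ammonium formate in CO2 as gradient eluent. Retention times were normalised to EPSA (Å^2) against eight reference compounds.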
The target of another series is T1, IL-23R (Homo sapiens, UniProt Q5VWK5).
T1 construct: host or cells: HEK293
T1 sequence (Q5VWK5 24-629): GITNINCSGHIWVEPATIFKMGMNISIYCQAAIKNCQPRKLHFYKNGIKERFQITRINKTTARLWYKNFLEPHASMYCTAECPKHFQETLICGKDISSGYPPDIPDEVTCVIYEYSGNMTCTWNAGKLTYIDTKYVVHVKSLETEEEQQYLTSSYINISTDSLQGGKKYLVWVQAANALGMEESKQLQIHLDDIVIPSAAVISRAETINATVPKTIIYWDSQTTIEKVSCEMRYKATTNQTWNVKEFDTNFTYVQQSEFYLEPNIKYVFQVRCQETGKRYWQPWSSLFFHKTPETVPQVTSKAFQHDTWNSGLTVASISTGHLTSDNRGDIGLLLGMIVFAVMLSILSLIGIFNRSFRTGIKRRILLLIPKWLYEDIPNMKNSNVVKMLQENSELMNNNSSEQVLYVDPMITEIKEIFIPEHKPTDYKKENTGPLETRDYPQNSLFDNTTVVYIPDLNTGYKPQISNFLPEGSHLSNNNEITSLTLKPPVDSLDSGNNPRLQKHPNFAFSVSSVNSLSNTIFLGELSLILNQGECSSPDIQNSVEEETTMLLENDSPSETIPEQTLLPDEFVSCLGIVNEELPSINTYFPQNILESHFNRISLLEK
The series is described as follows: IL23R Reporter Assay. It counts as cell-based. The conditions noted are these: HEK293 cells containing IL-23R, IL-12RP1 and STAT-inducible firefly luciferase reporter; 10 ng/mL IL-23 (EC90); 5 h at 37° C.; read-out: IL23R Reporter Assay.

Take `CNC(=O)C[C@@H]1NC(=O)[C@@H](NC(C)=O)C(C)(C)SSC(C)(C)[C@@H](C(=O)N[C@@H](Cc2ccc(OCCN)cc2)C(=O)N[C@@H](Cc2ccc3ccccc3c2)C(=O)NC2(C(=O)N[C@@H](CCCCNC(C)=O)C(=O)N[C@@H](CC(N)=O)C(=O)N[C@@H](Cc3cccnc3)C(=O)N(C)CC(N)=O)CCOCC2)NC(=O)[C@H](CCCCNC(C)=O)NC(=O)[C@H](Cc2c[nH]c3c(C)cccc23)NC(=O)[C@H]([C@@H](C)O)NC1=O` [compound 46] (Ac-[Pen]D(NHMe)T[Trp(7-Me)]K(Ac)[Pen][AEF][2Nal][Thp]K(Ac)N[3Pal][Sar]-NH2; disulfide 1-6 (inferred)): the EPSA in series [1] (read-out: EPSA) is 162 A^2. The pIC50 on IL-23R was 8.49.
For `CC(=O)NCCCC[C@@H]1NC(=O)[C@H](Cc2c[nH]c3c(C)cccc23)NC(=O)[C@H]([C@@H](C)O)NC(=O)[C@H](CC(N)=O)NC(=O)[C@@H](NC(=O)[C@@H](CCCNC(=N)N)NC(C)=O)C(C)(C)SSC(C)(C)[C@@H](C(=O)N[C@@H](Cc2ccc(OCCN)cc2)C(=O)N[C@@H](Cc2ccc3ccccc3c2)C(=O)NC2(C(=O)N[C@@H](CCC(=O)O)C(=O)N[C@@H](CC(N)=O)C(=O)N[C@@H](Cc3cccnc3)C(=O)N(C)[C@H](Cc3ccc(O)cc3)C(N)=O)CCOCC2)NC1=O` [compound 35, MeCO-r-Pen(3)-N-T-7MeW-K(Ac)-Pen(3)-AEF-2Nal-THp-E-N-3Pya-NMeDTyr-CONH2] (Ac-[dR][Pen]NT[Trp(7-Me)]K(Ac)[Pen][AEF][2Nal][Thp]EN[3Pal][dNMeY]-NH2; disulfide 2-7), in series [1] (read-out: EPSA), the EPSA was 184 A^2. Also, on IL-23R, the pIC50 was 8.47.
Consider `CC(=O)N(C)CCCC[C@@H]1NC(=O)[C@H](Cc2c[nH]c3c(C)cccc23)NC(=O)[C@H]([C@@H](C)O)NC(=O)[C@H](CC(=O)N(C)C)NC(=O)[C@@H](NC(=O)CCOCCOCC[N+](C)(C)C)C(C)(C)SSC(C)(C)[C@@H](C(=O)N[C@@H](Cc2ccc(OCCC[N+](C)(C)C)cc2)C(=O)N[C@@H](Cc2ccc3ccccc3c2)C(=O)NC2(C(=O)N[C@@H](CCCCN(C)C(C)=O)C(=O)N[C@@H](CC(N)=O)C(=O)N[C@@H](Cc3cccnc3)C(=O)N(C)CC(=O)N(C)C)CCOCC2)NC1=O` [compound 229, cPEG3aCO-Pen(3)-N(N(Me)2)-T-7MeW-K(NMeAc)-Pen(3)-TMA3F-2Nal-THP-K(NMeAc)-N-3Pya-Sar-CON(Me)2] ({Me3N+(CH2)2O(CH2)2O(CH2)2CO}-[Pen]D(NMe2)T[Trp(7-Me)][Lys(Me)](Ac)[Pen]Y(X12)[2Nal][Thp][Lys(Me)](Ac)N[3Pal][Sar]-NMe2; disulfide 1-6), for which the EPSA in series [1] (read-out: EPSA) was 145 A^2. The pIC50 at IL-23R was 7.72.
In the case of `CC(=O)N(C)CCCC[C@@H]1NC(=O)[C@H](Cc2c[nH]c3c(C)cccc23)NC(=O)[C@H]([C@@H](C)O)NC(=O)[C@H](CC[N+](C)(C)C)NC(=O)[C@@H](NC(=O)CCOCCOCC[N+](C)(C)C)C(C)(C)SSC(C)(C)[C@@H](C(=O)N[C@@H](Cc2ccc(OCCOCCOCC[N+](C)(C)C)cc2)C(=O)N[C@@H](Cc2ccc3ccccc3c2)C(=O)NC2(C(=O)N[C@@H](CCCCN(C)C(C)=O)C(=O)N[C@@H](CC(N)=O)C(=O)N[C@@H](Cc3cccnc3)C(=O)N(C)CC(=O)N(C)C)CCOCC2)NC1=O` [compound 416, cPEG3aCO-Pen(3)-Dab(Me)3-T-7MeW-K(NMeAc)-Pen(3)-APEG3F-2Nal-THP-K(NMeAc)-N-3Pya-Sar-CON(Me)2] ({Me3N+(CH2)2O(CH2)2O(CH2)2CO}-[Pen][X20]T[Trp(7-Me)][Lys(Me)](Ac)[Pen]Y(CH2CH2OCH2CH2OCH2CH2NMe3+)[2Nal][Thp][Lys(Me)](Ac)N[3Pal][Sar]-NMe2; disulfide 1-6), in series [1] (read-out: EPSA), the EPSA amounted to 166 A^2. At IL-23R, the pIC50 is 8.92.
The matching figures for `CC(=O)N[C@@H]1C(=O)N[C@@H](CC(=O)N(C)C)C(=O)N[C@@H]([C@@H](C)O)C(=O)N[C@@H](Cc2c[nH]c3c(C)cccc23)C(=O)N[C@@H](CCCCN(C)C(C)=O)C(=O)N[C@H](C(=O)N[C@@H](Cc2ccc(OCCOCCOCC[N+](C)(C)C)cc2)C(=O)N[C@@H](Cc2ccc3ccccc3c2)C(=O)NC2(C(=O)N[C@@H](CCCCN(C)C(C)=O)C(=O)N[C@@H](CC(N)=O)C(=O)N[C@@H](Cc3cccnc3)C(=O)N(C)CC(=O)N(C)C)CCOCC2)C(C)(C)SSC1(C)C` [compound 183, MeCO-Pen(3)-N(N(Me)2)-T-7MeW-K(NMeAc)-Pen(3)-APEG3F-2Nal-THP-K(NMeAc)-N-3Pya-Sar-CON(Me)2] (Ac-[Pen]D(NMe2)T[Trp(7-Me)][Lys(Me)](Ac)[Pen]Y(CH2CH2OCH2CH2OCH2CH2NMe3+)[2Nal][Thp][Lys(Me)](Ac)N[3Pal][Sar]-NMe2; disulfide 1-6): 133 A^2 and 8.74.
For `CC(=O)NCCCC[C@@H]1NC(=O)[C@H](Cc2c[nH]c3c(-c4cccc(NC(C)=O)c4)cccc23)NC(=O)[C@H]([C@@H](C)O)NC(=O)[C@H](CC(N)=O)NC(=O)[C@@H](NC(C)=O)CCSC[C@@](C)(C(=O)N[C@@H](Cc2ccc(OCCCCC[N+](C)(C)C)cc2)C(=O)N[C@@H](Cc2ccc3ccccc3c2)C(=O)NC2(C(=O)N[C@@H](CCCCNC(C)=O)C(=O)N[C@@H](CC(N)=O)C(=O)N[C@@H](Cc3cccnc3)C(=O)N(C)CC(N)=O)CCOCC2)NC1=O` [compound 477, MeCO-Abu(1)-N-T-7(3NAcPh)W-K(Ac)-aMeC(1)-TMAPF-2Nal-THP-K(Ac)-N-3Pya-Sar-CONH2] (Ac-[Abu(4-yl)]NT[Trp(7-(3-AcNH-Ph))]K(Ac)[αMeC]Y(X3)[2Nal][Thp]K(Ac)N[3Pal][Sar]-NH2; thioether 1-6), the EPSA in series [1] (read-out: EPSA) turned out to be 166 A^2. In addition, the pIC50 at IL-23R is 8.21.
For the compound “cPEG3aCO-k(PEG2PEG2gEC14)-Pen(3)-N(N(Me)2)-T-7MeW-K(NMeAc)-Pen(3)-TMAPF-2Nal-THP-K(NMeAc)-N-3Pya-Sar-CON(Me)2 [compound 379]”, the EPSA in series [1] amounted to 149.74 Å^2. Further, at IL-23R, the pIC50 is 7.92.
Take `CC(=O)N(C)CCCC[C@@H]1NC(=O)[C@H](Cc2c[nH]c3c(C)cccc23)NC(=O)[C@H]([C@@H](C)O)NC(=O)[C@H](CC(=O)N(C)C)NC(=O)[C@@H](NC(=O)CCOCCOCC[N+](C)(C)C)C(C)(C)SSC(C)(C)[C@@H](C(=O)N[C@@H](Cc2ccc(OCCN(CC[N+](C)(C)C)S(=O)(=O)c3ccccc3[N+](=O)[O-])cc2)C(=O)N[C@@H](Cc2ccc3ccccc3c2)C(=O)NC2(C(=O)N[C@@H](CCCCN(C)C(C)=O)C(=O)N[C@@H](CC(N)=O)C(=O)N[C@@H](Cc3cccnc3)C(=O)N(C)CC(=O)N(C)C)CCOCC2)NC1=O` [compound 206, cPEG3aCO-Pen(3)-N(N(Me)2)-T-7MeW-K(NMeAc)-Pen(3)-AEF(NsCh)-2Nal-THP-K(NMeAc)-N-3Pya-Sar-CON(Me)2] ({Me3N+(CH2)2O(CH2)2O(CH2)2CO}-[Pen]D(NMe2)T[Trp(7-Me)][Lys(Me)](Ac)[Pen]Y(X59)[2Nal][Thp][Lys(Me)](Ac)N[3Pal][Sar]-NMe2; disulfide 1-6): in series [1] (read-out: EPSA), the EPSA came out at 145 A^2. In addition, the pIC50 at IL-23R was 8.59.
In the same order, the values of `CC(=O)N(C)CCCC[C@@H]1NC(=O)[C@H](Cc2c[nH]c3c(C)cccc23)NC(=O)[C@H]([C@@H](C)O)NC(=O)[C@H](CC(=O)N(C)C)NC(=O)[C@@H](NC(=O)CCOCCOCC[N+](C)(C)C)C(C)(C)SSC(C)(C)[C@@H](C(=O)N[C@@H](Cc2ccc(-n3cc(CCCCC[N+](C)(C)C)nn3)cc2)C(=O)N[C@@H](Cc2ccc3ccccc3c2)C(=O)NC2(C(=O)N[C@@H](CCCCN(C)C(C)=O)C(=O)N[C@@H](CC(N)=O)C(=O)N[C@@H](Cc3cccnc3)C(=O)N(C)CC(=O)N(C)C)CCOCC2)NC1=O` [compound 335, cPEG3aCO-Pen(3)-N(N(Me)2)-T-7MeW-K(NMeAc)-Pen(3)-F(4TzlTMA5)-2Nal-THP-K(NMeAc)-N-3Pya-Sar-CON(Me)2] ({Me3N+(CH2)2O(CH2)2O(CH2)2CO}-[Pen]D(NMe2)T[Trp(7-Me)][Lys(Me)](Ac)[Pen][X43][2Nal][Thp][Lys(Me)](Ac)N[3Pal][Sar]-NMe2; disulfide 1-6) are 153 A^2 and 8.92.
The matching figures for `CC(=O)N(C)CCCC[C@@H]1NC(=O)[C@H](C)NC(=O)[C@H]([C@@H](C)O)NC(=O)[C@H](CC(=O)N(C)C)NC(=O)[C@@H](NC(=O)CCOCCOCC[N+](C)(C)C)C(C)(C)SSC(C)(C)[C@@H](C(=O)N[C@@H](Cc2ccc(OCCCCC[N+](C)(C)C)cc2)C(=O)N[C@@H](Cc2ccc3ccccc3c2)C(=O)NC2(C(=O)N[C@@H](CCCCN(C)C(C)=O)C(=O)N[C@@H](CC(N)=O)C(=O)N[C@@H](Cc3cccnc3)C(=O)N(C)CC(=O)N(C)C)CCOCC2)NC1=O` [compound 512, cPEG3aCO-Pen(3)-N(N(Me)2)-T-A-K(NMeAc)-Pen(3)-TMAPF-2Nal-THP-K(NMeAc)-N-3Pya-Sar-CONMe2] ({Me3N+(CH2)2O(CH2)2O(CH2)2CO}-[Pen]D(NMe2)TA[Lys(Me)](Ac)[Pen]Y(X3)[2Nal][Thp][Lys(Me)](Ac)N[3Pal][Sar]-NMe2; disulfide 1-6): 205 A^2 and less than 5.13.
